PubChem BioAssay AID835 (The Scripps Research Institute Molecular Screening Center, 2007)
The source made the active and inactive calls. No rule for the calls is given here.

What follows are molecules tested against Ephrin type-B receptor 4 (Homo sapiens) (UniProt P54760) (assay: EphB4-ephrin-B2 interaction antagonists, dose response, biochemical, TNYL-RAW peptide displacement (AID 835)).
Chain of Ephrin type-B receptor 4 (Homo sapiens) (P54760 whole entry, looked up): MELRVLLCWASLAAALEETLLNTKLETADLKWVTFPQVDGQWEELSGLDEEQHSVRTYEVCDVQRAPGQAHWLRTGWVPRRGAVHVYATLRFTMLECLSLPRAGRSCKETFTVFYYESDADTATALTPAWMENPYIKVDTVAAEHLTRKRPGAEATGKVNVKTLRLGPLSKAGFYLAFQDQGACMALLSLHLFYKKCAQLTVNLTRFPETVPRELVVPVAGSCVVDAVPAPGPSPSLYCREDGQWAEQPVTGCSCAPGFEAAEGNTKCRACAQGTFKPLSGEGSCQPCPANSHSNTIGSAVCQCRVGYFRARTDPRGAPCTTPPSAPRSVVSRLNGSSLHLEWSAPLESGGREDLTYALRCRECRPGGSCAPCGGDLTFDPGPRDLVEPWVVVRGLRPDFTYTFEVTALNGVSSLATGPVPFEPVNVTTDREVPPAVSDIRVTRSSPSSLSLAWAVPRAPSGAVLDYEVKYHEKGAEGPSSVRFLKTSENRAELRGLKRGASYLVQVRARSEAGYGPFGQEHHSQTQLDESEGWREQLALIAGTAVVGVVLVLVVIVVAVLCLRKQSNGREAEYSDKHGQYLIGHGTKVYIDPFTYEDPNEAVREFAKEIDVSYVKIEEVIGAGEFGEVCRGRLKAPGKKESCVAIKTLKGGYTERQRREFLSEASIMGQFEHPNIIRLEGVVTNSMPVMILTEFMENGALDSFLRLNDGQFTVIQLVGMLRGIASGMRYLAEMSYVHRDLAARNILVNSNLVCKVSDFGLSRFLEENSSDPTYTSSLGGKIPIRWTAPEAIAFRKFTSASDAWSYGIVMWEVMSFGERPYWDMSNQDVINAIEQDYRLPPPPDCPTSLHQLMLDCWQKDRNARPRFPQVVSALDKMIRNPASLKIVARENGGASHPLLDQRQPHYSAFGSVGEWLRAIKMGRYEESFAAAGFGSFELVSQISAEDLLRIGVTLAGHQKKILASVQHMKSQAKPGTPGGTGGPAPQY
In the case of `COC(=O)CSC1=C(C#N)C(c2ccc(C)cc2)C2=C(CCCC2=O)N1` (centres undefined), the IC50 was > 79.4 µM (inactive). In the case of `CCCc1[nH]nc2c1C(c1ccc(OC)c(Cn3nnc4ccccc43)c1)C(C#N)=C(N)O2` (centres undefined), the IC50 was > 79.4 µM (inactive). For `Oc1[nH]c2ccccc2c1N=Nc1nc2ccccc2s1`, the IC50 was > 79.4 µM (inactive). For `CCOC(=O)C1=C(c2ccccc2)N2CCS(=O)(=O)N=C2S1`, the IC50 was > 79.4 µM (inactive). With `CCn1c(O)c(C=Nc2ccc(N3CCOCC3)cc2)c(=O)n(CC)c1=S` the IC50 was > 79.4 µM (inactive). In the case of `Clc1cccc(/C=N/Nc2ncnc3ccccc23)c1`, the IC50 was > 79.4 µM (inactive). For `CC1=Nc2ccccc2/C1=C\c1nc(-c2ccc(C(F)(F)F)cc2)oc1O`, the IC50 was > 79.4 µM (inactive). With `CCOc1cccc(N2C(=O)CC(=O)NC2=O)c1` the IC50 was > 79.4 µM (inactive). With `CC1=Nc2ccccc2/C1=C\c1nc(-c2ccc(F)cc2)oc1O` the IC50 was > 79.4 µM (inactive).
